Consider one compound from patent US8008540B2, “Transgenic non-human animal for use in research models for studying Parkinson's disease” (Kampavata AB, priority 2004, dated 2011).

The test system of the assay is homozygous knockout mice (+/DAT-cre; Tfam^loxP/Tfam^loxP). The experiment in a line: L-DOPA treatment, open field activity cages (locomotion and rearing). Type of assay: in vivo, mouse. Here is the method:
Open field activity was examined in automated activity cages. This consisted of Plexiglas boxes (35×35×18 cm) with a lower and a higher row of infrared sensitive photocells and a microcomputer registering interruption of photocell beams. Animals were tested during the light phase of the light-dark cycle, between 9:00 and 13:00 h. Locomotor activity was registered when animals interrupted the lower row of photocells and rearing was registered when the higher row was interrupted. Animals were individually placed gently in the open field arena and remained there during 60 min. Locomotion and rearing counts were registered every 10 min. For the L-DOPA treatment, spontaneous locomotion and rearing were measured in activity cages as above. Animals were then given i.p. injections of L-DOPA combined with the peripheral dopa decarboxylase inhibitor benzerazide (Madopark 20 mg/kg in PBS; Roche) or PBS and were then immediately put back into the activity cages for another 60 minutes of recording. The scoring of counts was given as mean+/−SEM. Statistical significance was tested using 2-way ANOVA analysis. The open field box was cleaned with 70% alcohol after each test.

[1] abbreviates: 20 and 30 week old homozygous knockout mice, L-DOPA 20 mg/kg i.p. vs saline, 60 min recording.

Entries after “also recorded” stand apart in the source; their conditions may differ.

Take `N[C@@H](Cc1ccc(O)c(O)c1)C(=O)O` [L-DOPA]: where the note is “20 and 30 week old homozygous knockout mice”, the motor performance entry is given as “improved motor performance”. For the same compound, under setting [1], the locomotion entry is on record as “increased locomotion” and the rearing entry is “increase in rearing was similar; also recorded: increase of rearing”. Moreover, where the note is “Parkinson mouse model, L-DOPA treatment”, the progressive movement disorder entry is “partially reversed”. In addition, the “locomotor response, course over time” value (older (30 week old) homozygous knockout mice) is listed as “abruptly terminated”. Also, the “locomotion response, younger vs older mice” value (younger (20 week old) homozygous knockout mice, identical L-DOPA dose) is “more pronounced and longer lasting locomotion response; also recorded: greater locomotion response”.
